Reference: US9505752B2, “Piperidine amide derivatives as HIV attachment inhibitors” (priority 2012, dated 2016)
Read-outs that look alike come from different tables or passages of the source.

System: HIV-1 LAI envelope single-round infectious reporter virus
Assay: Single-round infectious luciferase reporter virus (HIV-1 LAI envelope) infection of MT2 cells
Assay type: cell-based
Conditions: Human immunodeficiency virus 1, MT2, 72 h
Source text: • Virus production—Human embryonic Kidney cell line, 293T (HEK 293T), was propagated in Dulbecco's Modified Eagle Medium (Invitrogen, Carlsbad, Calif.) containing 10% fetal bovine serum (FBS, Sigma, St. Louis, Mo.). The human T-cell leukemia cell MT2 (AIDS Research and Reference Reagent Program, Cat. 237) was propagated in RPMI 1640 (Invitrogen, Carlsbad, Calif.) containing 10% fetal bovine serum (FBS, Hyclone, Logan, Utah) • Virus infection—Single-round infectious reporter virus was produced by co-transfecting HEK 293T cells with plasmide expressing the HIV-1 LAI envelope along with a plasmid containing an HIV-1 LAI proviral cDNA with the envelope gene replaced by a firefly luciferase reporter gene (Chen et al., Ref 41). Transfections were performed using lipofectAMINE PLUS reagent as described by the manufacturer (Invitrogen, Carlsbad, Calif.). Experimental Procedure • 1. MT2 cells were plated in black, 384 well plates at a cell density of 5×10^3 cells per well in 25 μl RPMI 1640 containing 10% FBS. • 2. Compound (diluted in dimethylsulfoxide and growth medium) was added to cells at 12.5 μl/well, so that the final assay concentration would be ≦50 nM. • 3. 12.5 μl of single-round infectious reporter virus in Dulbecco's Modified Eagle Medium was added to the plated cells and compound at an approximate multiplicity of infection (MOI) of 0.01, resulting in a final volume of 50 μl per well. • 4. Virus-infected cells were incubated at 37 degrees Celsius in a CO2 incubator and harvested 72 h after infection. • 5. Viral infection was monitored by measuring luciferase expression in the infected cells using a luciferase reporter gene assay kit (Steady-Glo, Promega, Madison, Wis.) as described by the manufacturer. Luciferase activity was then quantified by measuring luminescence using an EnVision Multilabel Plate Readers (PerkinElmer, Waltham, Mass.). • 6. The percent inhibition for each compound was calculated by quantifying the level of luciferase expression in cells infected in the presence of each compound as a percentage of that observed for cells infected in the absence of compound and subtracting such a determined value from 100. • 7. An EC50 provides a method for comparing the antiviral potency of the compounds of this invention. The effective concentration for fifty percent inhibition (EC50) was calculated with the Microsoft Excel Xlfit curve fitting software. For each compound, curves were generated from percent inhibition calculated at 10 different concentrations by using a four parameter logistic model (model 205). Table 1 is the key for the data in Table 2.

[1] = read-out: EC50 Group from Table 1

Compound	EC50 [1] [µM]	EC50 [µM]
Cn1ccnc1C(c1ccccc1)C1CCN(C(=O)C(=O)c2c[nH]c3c(-n4ccnn4)ncc(F)c23)CC1 (centres unmarked) [Compound 2006, 1-(4-fluoro-7-(1H-1,2,3-triazol-1-yl)-1H-pyrrolo[2,3-c]pyridin-3-yl)-2-(4-((1-methyl-1H-imidazol-2-yl)(phenyl)methyl)piperidin-1-yl)ethane-1,2-dione]	< 0.5	–
N#CC(c1ccccc1)C1CCN(C(=O)C(=O)c2c[nH]c3c(-n4ccnn4)ncc(F)c23)CC1 (centres unmarked) [Compound 1008]	< 0.5	0.0002
COc1cnc(-n2cnc(C)n2)c2[nH]cc(C(=O)C(=O)N3CCC(C(C#N)c4ccccc4)CC3)c12 (centres unmarked) [Compound 1009]	< 0.5	–
COc1cnc(-n2ccnn2)c2[nH]cc(C(=O)C(=O)N3CCC4(CC3)CC4(c3ccccc3)c3nnc(C)o3)c12 (centres unmarked) [Compound 1005]	< 0.5	0.00075
C=C(c1ccccc1)C1CCN(C(=O)C(=O)c2c[nH]c3ccccc23)CC1 [Compound 1004]	> 0.5	–
COc1cnc(-n2cnc(C)n2)c2[nH]cc(C(=O)C(=O)N3CCC(C(c4ccccc4)c4nccn4C)CC3)c12 (centres unmarked) [Compound 2007, 1-(4-methoxy-7-(3-methyl-1H-1,2,4-triazol-1-yl)-1H-pyrrolo[2,3-c]pyridin-3-yl)-2-(4-((1-methyl-1H-imidazol-2-yl)(phenyl)methyl)piperidin-1-yl)ethane-1,2-dione]	< 0.5	–
CC(C)=C(c1ccccc1)C1CCN(C(=O)C(=O)c2c[nH]c3ccccc23)CC1 [Compound 1002]	> 0.5	–
COc1ncc(OC)c2c(C(=O)C(=O)N3CCC4(CC3)CC4(C#N)c3ccccc3)c[nH]c12 (centres unmarked) [Compound 2001, 6-(2-(4,7-dimethoxy-1H-pyrrolo[2,3-c]pyridin-3-yl)-2-oxoacetyl)-1-phenyl-6-azaspiro[2.5]octane-1-carbonitrile]	< 0.5	–
COc1cnc(-n2cnc(C)n2)c2[nH]cc(C(=O)C(=O)N3CCC4(CC3)CC4(C#N)c3ccccc3)c12 (centres unmarked) [Compound 2003, 6-(2-(4-methoxy-7-(3-methyl-1H-1,2,4-triazol-1-yl)-1H-pyrrolo[2,3-c]pyridin-3-yl)-2-oxoacetyl)-1-phenyl-6-azaspiro[2.5]octane-1-carbonitrile]	< 0.5	0.00252
N#CC1(c2ccccc2)CC12CCN(C(=O)C(=O)c1c[nH]c3c(-n4ccnn4)ncc(F)c13)CC2 (centres unmarked) [Compound 2002, 6-(2-(4-fluoro-7-(1H-1,2,3-triazol-1-yl)-1H-pyrrolo[2,3-c]pyridin-3-yl)-2-oxoacetyl)-1-phenyl-6-azaspiro[2.5]octane-1-carbonitrile]	< 0.5	–
O=C(C(=O)N1CCC(C(=O)c2ccccc2)CC1)c1c[nH]c2ccccc12 [Compound 1001]	> 0.5	3.49
COc1cnc(-n2cnc(C)n2)c2[nH]cc(C(=O)C(=O)N3CCC(C(O)(c4ccccc4)c4nccn4C)CC3)c12 (centres unmarked) [Compound 2005, 1-(4-(hydroxy(1-methyl-1H-imidazol-2-yl)(phenyl)methyl)piperidin-1-yl)-2-(4-methoxy-7-(3-methyl-1H-1,2,4-triazol-1-yl)-1H-pyrrolo[2,3-c]pyridin-3-yl)ethane-1,2-dione]	< 0.5	–
C/C=C(\c1ccccc1)C1CCN(C(=O)C(=O)c2c[nH]c3ccccc23)CC1 [Compound 1003]	> 0.5	–
Cn1ccnc1C(O)(c1ccccc1)C1CCN(C(=O)C(=O)c2c[nH]c3c(-n4ccnn4)ncc(F)c23)CC1 (centres unmarked) [Compound 2004, 1-(4-fluoro-7-(1H-1,2,3-triazol-1-yl)-1H-pyrrolo[2,3-c]pyridin-3-yl)-2-(4-(hydroxy(1-methyl-1H-imidazol-2-yl)(phenyl)methyl)piperidin-1-yl)ethane-1,2-dione]	< 0.5	–
O=C(C(=O)N1CCC(Cc2ccccc2)CC1)c1c[nH]c2c(-n3ccnn3)ncc(F)c12 [Compound 1006]	< 0.5	–
O=C(C(=O)N1CCC(C(O)(c2ccccc2)c2ccccc2)CC1)c1c[nH]c2c(-n3ccnn3)ncc(F)c12 [Compound 1007]	< 0.5	–
